According to patent publication US20240207276A1, “COMBINATION COMPRISING A NEUROTENSIN RECEPTOR BINDING COMPOUND AND FOLFIRINOX” (Fusion Pharmaceuticals Inc., priority 2021, published 2024):

System: AsPC1 tumors
Test: Efficacy study in mice bearing subcutaneous AsPC1 tumors (tumor volume)
Assay type: in vivo, SWISS Nude mice
Conditions: single treatments; FOLFIRINOX (Group 2) or ^177Lu-IPN01087 20 MBq/mouse IV weekly x3 (Group 3); FIG. 2
Procedure: Example 1: Efficacy Study on Animals Induced with AsPC1 Cells
The AsPC1 cell line was isolated from a metastatic site (ascites) from a patient (Chen WH. et al., In Vitro. 1982 January; 18(1):24-34).
Tumor cells were grown as monolayer at 37° C. in a humidified atmosphere (5% C02, 95% air). The culture medium is RPMI 1640 containing glutamax supplemented with 10% heat inactivated fetal bovine serum, sodium pyruvate and hepes. For experimental use, tumor cells were detached from the culture flask using accutase and neutralized by addition of complete culture medium. The cells were counted and their viability was assessed by 0.25% trypan blue exclusion assay. Two frozen pellets of AsPC-1 tumor cells were prepared: one frozen cell pellet prepared during the in-vitro cell culture, and one frozen cell pellet prepared using the cell suspension used for tumor induction in mice.
One hundred fifty (150) healthy female SWISS Nude mice (Crl:NU(Ico)-Foxn1 nu), 7 weeks old at reception, were obtained from Charles River.
Tumors were induced by subcutaneous injection of ten million (107) AsPC-1 cells in 200 μL of RPMI 1640 medium containing matrigel (50:50, v:v, ref: 356237, BD Biosciences, France) into the right flank (in the axis of the heart) of 150 female animals. […]

With “^177Lu-zalsenertant tetraxetan [^177Lu-IPN01087]” the “AsPC-1 tumor growth, antitumor effect compared to the vehicles” value was “produced an antitumor effect”.
